# Laboratory results from article PMC7253423, “Quassinoid analogs with enhanced efficacy for treatment of hematologic malignancies target the PI3Kγ isoform” (Communications Biology, 2020).
# Several values for one entry are separate records, joined by “and”; a condition that tells them apart may be missing. Equal values may be shown once. Read-outs that look alike come from different tables or passages of the source.
# Key:
# [1] = tested on: Raji cells; assay: Cell viability assay (CellTiter-Glo luminescence); format: cell-based, human; conditions: Homo sapiens
# Description: (§1) 5000 cells as indicated were cultured in 96-well plate with 100 μl of media. […] After treatment, the cells were incubated with 100 μl buffer for 10 min at room temperature following the instructions of CellTiter-Glo kit (Promega, Madison, WI). Luminescence was detected using a multi-mode reader Cytation 5 (BioTek, Winooski, VT). […] Two independent experiments done in duplicates were performed.
# [2] = tested on: SU-DHL-4 cells; assay: Cell viability assay (CellTiter-Glo luminescence); format: cell-based, human; conditions: Homo sapiens, SU-DHL-4, 144 h
# Description: as §1
# [3] = Cytotoxicity, cell viability assay in normal cells; format: cell-based, human; conditions: human, PBMC, fraction of 0 μM control, read-out: relative cell viability (Fig 6a), replicates
# From the text: (§2) Human peripheral blood mononuclear cells (PBMCs), normal T-cells and B-cells were provided by the University of Pennsylvania Human Immunology Core (HIC), and Patient-derived xenografts (PDXs) were obtained from Fox Chase Cancer Center (FCCC). These samples were from different unidentified and healthy donors with written, informed consent. All the procedures were approved by the Institutional Review Board (IRB) and conducted according to the declarations of Helsinki protocols.
# as §1
# [4] = tested on: PBMC; assay: Cytotoxicity, cell viability assay in normal cells; format: cell-based, human; conditions: Fig 5c
# From the text: as §2, §1
# [5] = Cytotoxicity, cell viability assay in normal cells; format: cell-based; conditions: human, fraction of 0 μM control; for viability at 0.000244141 μM: Con. 0.000244141 μM; for viability at 0.015625 μM: Con. 0.015625 μM; for viability at 0.0625 μM: Con. 0.0625 μM; for viability at 1 μM: Con. 1 μM
# From the text: as §2, §1
# [6] = tested on: hematologic malignancies derived cell lines; assay: Cell viability assay, panel of hematologic malignancy derived cell lines; format: cell-based, human; conditions: 100 nM, 72 h, lymphoma, leukemia and multiple myeloma cell lines (13 cell lines for analogs)
# Description: 5000 cells as indicated were cultured in 96-well plate with 100 μl of media. On the next day, Brusatol or associated analogs were added once to the cells without media change. After treatment, the cells were incubated with 100 μl buffer for 10 min at room temperature following the instructions of CellTiter-Glo kit (Promega, Madison, WI). Luminescence was detected using a multi-mode reader Cytation 5 (BioTek, Winooski, VT). […] Two independent experiments done in duplicates were performed.
# [7] = tested on: Raji cells; assay: Western blot of PI3K/AKT signaling proteins; format: cell-based, human; conditions: Raji, 0, 50 nM, 100 nM; 0, 12 h, 24 h
# Description: Western blot analyses were performed as previously described. Briefly, total cell lysates were separated by SDS-PAGE gel and transferred to nitrocellulose membrane. The membranes were blocked with 5% non-fat milk, probed with specific antibodies, and visualized using the Odyssey scanner (LiCor Inc., Lincoln, NE).
# [8] = tested on: MOLM14 xenografts; assay: In vivo tumorigenic assay using xenografts, tumor size; parameters: species or system NOD/SCID mice; conditions: for tumor size (Fig 5d&5e), individual mice: MOLM14 xenograft
# Description: (§3) Six-week-old male NOD.CB17-Prkdc^scid/J (NOD/SCID) mice (Jackson Labs, Bar Harbor, ME, USA) were used as the human-in-mouse xeno-transplantation model. MOLM14 cells (1 × 10^7 cells) were injected into the subcutaneous space on the left flank of the mice. […] Body weight and tumor size were monitored before every injection. After treatment for 2 weeks, the mice were euthanized by CO2 inhalation and the tumors were carefully excised. The tumor volume (mm^3) was measured and calculated using the formula (a × b × b)/2 (a, the largest diameter of two measurements; b, the smallest diameter of two measurements).
# [9] = Body weight of xenograft mice; format: in vivo, NOD/SCID mice; conditions: individual mice, Fig S3i, in g (unit assumed)
# Description: as §3
# [10] = B-cells, read-out: relative cell viability (Fig 6c), replicates
# [11] = T-cells, read-out: relative cell viability (Fig 6b), replicates
compound,measurement,setting,value
COC(=O)C12OCC34C(CC5C(C)=C(OC(=O)CNC(=O)OC(C)(C)C)C(=O)CC5(C)C3C(O)C1O)OC(=O)C(OC(=O)C=C(C)C)C24 (centres unmarked) [#15],IC50,[1]; 72 h,92.9 nM
same,viability at 0.00244141 µM,"[1]; read-out: relative cell viability (Fig 6f), replicates, Raji, Con. 0.00244141 μM, fraction of 0 μM control",120%
same,viability at 0.0390625 µM,"[1]; read-out: relative cell viability (Fig 6f), replicates, Raji, Con. 0.0390625 μM, fraction of 0 μM control",63.6%
same,viability at 0.15625 µM,"[1]; read-out: relative cell viability (Fig 6f), replicates, Raji, Con. 0.15625 μM, fraction of 0 μM control",25.8%
same,viability at 0.625 µM,"[1]; read-out: relative cell viability (Fig 6f), replicates, Raji, Con. 0.625 μM, fraction of 0 μM control",10.3%
same,viability at 10 µM,"[1]; read-out: relative cell viability (Fig 6f), replicates, Raji, Con. 10 μM, fraction of 0 μM control",5.59%
same,viability at 0.00244141 µM,"[2]; read-out: relative cell viability (Fig 6d), replicates, SU-DHL-4, Con. 0.00244141 μM, fraction of 0 μM control",90.7%
same,viability at 0.0390625 µM,"[2]; read-out: relative cell viability (Fig 6d), replicates, SU-DHL-4, Con. 0.0390625 μM, fraction of 0 μM control",35.2%
same,viability at 0.15625 µM,"[2]; read-out: relative cell viability (Fig 6d), replicates, SU-DHL-4, Con. 0.15625 μM, fraction of 0 μM control",13.9%
same,viability at 0.625 µM,"[2]; read-out: relative cell viability (Fig 6d), replicates, SU-DHL-4, Con. 0.625 μM, fraction of 0 μM control",7.7%
same,viability at 10 µM,"[2]; read-out: relative cell viability (Fig 6d), replicates, SU-DHL-4, Con. 10 μM, fraction of 0 μM control",4.89%
same,viability at 0.000244141 μM,[3]; Con. 0.000244141 μM,104%
same,viability at 0.00390625 μM,[3]; Con. 0.00390625 μM,91.7%
same,viability at 0.015625 μM,[3]; Con. 0.015625 μM,76.5%
same,viability at 0.0625 μM,[3]; Con. 0.0625 μM,74.9%
same,viability at 1 μM,[3]; Con. 1 μM,61.2%
same,"Cell viability, raw luminescence reading",[4]; Con. 0.01 μM,24385 and 24514
same,"Cell viability, raw luminescence reading",[4]; Con. 0.039 μM,25686 and 22234
same,"Cell viability, raw luminescence reading",[4]; Con. 0.156 μM,6585 and 8242
same,"Cell viability, raw luminescence reading",[4]; Con. 0.625 μM,7188 and 7989
same,"Cell viability, raw luminescence reading",[4]; Con. 10 μM,9130 and 9273
same,viability at 0.000244141 μM,[5]; [10],80.4%
same,viability at 0.00390625 μM,"[5]; B-cells, Con. 0.00390625 μM, read-out: relative cell viability (Fig 6c), replicates",96.8%
same,viability at 0.015625 μM,[5]; [10],100%
same,viability at 0.0625 μM,[5]; [10],89.1%
same,viability at 1 μM,[5]; [10],91.6%
same,viability at 0.000244141 μM,[5]; [11],101%
same,viability at 0.015625 μM,[5]; [11],83.4%
same,viability at 0.0625 μM,[5]; [11],82.3%
same,viability at 1 μM,[5]; [11],83.3%
same,inhibition of cell viability in panel of cell lines,[6],significantly inhibit
same,"suppression of AKT1, GSK3, and mTOR levels",[7],largely similar to Brusatol
same,"tumor size, inhibitory response","[8]; 2 mg/kg intraperitoneally three times per week, 2 weeks, vs PBS control",strong and rapid inhibitory response
same,"tumor size (Fig 5d&5e), individual mice",[8]; 0d,78.7304 and 93.4671 and 63.7324 and 75.8678 and 67.9005 and 67.4325
same,"tumor size (Fig 5d&5e), individual mice",[8]; 2d,74.0736 and 114.773 and 91.676 and 153.055 and 77.875 and 106.489
same,"tumor size (Fig 5d&5e), individual mice",[8]; 4d,75.6994 and 102.99 and 96.7244 and 124.841 and 62.8883 and 83.9808
same,"tumor size (Fig 5d&5e), individual mice",[8]; 6d,103.463 and 91.5117 and 52.853 and 252.562 and 146.711 and 106.359
same,"tumor size (Fig 5d&5e), individual mice",[8]; 8d,91.2302 and 210.386 and 191.93 and 161.391 and 92.482 and 87.983
same,"tumor size (Fig 5d&5e), individual mice",[8]; 10d,119.98 and 398.721 and 249.328 and 242.913 and 135.818 and 159.498
same,"tumor size (Fig 5d&5e), individual mice",[8]; 12d,236.553 and 558.264 and 472.199 and 496.746 and 222.458 and 242.483
same,Body weight,[9]; 0d,22.36 and 23.19 and 22.87 and 22.58 and 24.63
same,Body weight,[9]; 2d,23.14 and 23.83 and 23.95 and 23.84 and 24.63
same,Body weight,[9]; 4d,23.76 and 24.67 and 24.61 and 23.58 and 25.59
same,Body weight,[9]; 6d,23.47 and 24.61 and 23.88
same,Body weight,[9]; 8d,23.92 and 24.24 and 24.72 and 24.85 and 23.89 and 25.62
same,Body weight,[9]; 10d,24.4 and 25.19 and 24.12
same,Body weight,[9]; 12d,25.79 and 25.75 and 24.71 and 26.96
